Here are results for 12 compounds from patent US7888285B2, “2,4,6-phenyl substituted cyclic ketoenols” (Bayer CropScience AG, priority 2003, dated 2011).

What all share (type): in vivo
The subject of experiment [1] is cereals. Kind of experiment: Container experiments with cereals outside the greenhouse, herbicide:mefenpyr 1:2 tank mix. The conditions noted are these: no safener. Here is the method:
(§1) Seeds of monocotyledonous and dicotyledonous weed and crop plants are placed in sandy loam in wood fibre pots or in plastic pots, covered with soil and grown in the greenhouse or, during the vegetation period, in the open outside the greenhouse, under good growth conditions. 2 to 3 weeks after sowing, the test plants are treated in the one- to three-leaf stage. The test compounds, which are formulated as wettable powder (WP) or as a fluid (EC), are sprayed onto the plants and the soil surface at various dosage rates with a water application rate of 300 l/ha (converted), with added wetter (0.2 to 0.3%). 3 to 4 weeks after the treatment of the test plants, the effect of the preparations is scored visually in comparison with untreated controls (herbicidal activity in per cent (%): 100% activity=plants have died, 0% activity=like control plants).
(§2) If it is additionally desired to test whether safeners are capable of improving the plant tolerance of test substances with regard to the crop plants, the following options for applying the safeners are used: • Prior to application of the test substances, the crop plants are sprayed with safener at a particular application rate per hectare (usually 1 day prior to application of the test substances). • The safener is applied together with the test substance in the form of a tank mix (the amount of safener being indicated in g/ha or as a safener:herbicide ratio).
(§3) The activity of the safener substance can be assessed in comparison with untreated control plants by comparing the effect of test substances on crop plants which have been treated without and with safener.
Container Experiments with Cereals Outside the Greenhouse Herbicide: mefenpyr 1:2 tank mix

For the next experiment, the system named is Spring barley. Kind of experiment: Post-emergence crop plant tolerance, greenhouse experiments with safener pretreatment (mefenpyr). Here is the method:
(§4) Post-Emergence Crop Plant Tolerance
as §1, §2, §3
(§5) Results of Greenhouse Experiments With Safener/Pretreatment (Safener Mefenpyr (100 g a.i./ha), One Day Prior to Post-Emergence Treatment With the Herbicide)

The next experiment has as its system Spring wheat. Described as above. The procedure:
as §4, §1, §2, §3, §5

The test system of experiment [2] is Avena fatua. Kind of experiment: Post-emergence test. To be noted: greenhouse, 250 g a.i./ha, scored after three weeks. The procedure:
(§6) To prepare a suitable active compound preparation, 1 part by weight of active compound is mixed with the stated amount of solvent, the stated amount of emulsifier is added, and the concentrate is diluted with water to the desired concentration.
(§7) Test plants with a height of 5-15 cm are sprayed with the active compound preparation in such a way that the amounts of active compound desired in each case are applied per unit area. The concentration of the spray mixture is chosen in such a way that the amounts of active compound desired in each case are applied in 1 000 1 of water/ha.
(§8) After three weeks, the degree of damage of the plants is scored in % damage in comparison with the development of the untreated control.
(§9) The figures denote: • 0% =no effect (like untreated control) • 100% =total destruction

Experiment [3] concerns Echinochloa. Kind of experiment: Post-emergence test. To be noted: greenhouse, 250 g a.i./ha, scored after three weeks. The procedure: as §6, §7, §8, §9
A further experiment concerns sugar beet. Nature of the experiment: Post-emergence test. To be noted: greenhouse, 250 g a.i./ha, scored after three weeks. Here is the method:
as §6, §7, §8, §9

For experiment [4], the system named is Setaria. Kind of experiment: Post-emergence test. The conditions noted are these: greenhouse, 250 g a.i./ha, scored after three weeks. The procedure: as §6, §7, §8, §9
The test system of experiment [5] is Alopecurus. Nature of the experiment: Post-emergence test. The conditions noted are these: greenhouse, 250 g a.i./ha, scored after three weeks. The procedure:
as §6, §7, §8, §9

For another experiment, the system named is Meloidogyne incognita. Nature of the experiment: Meloidogyne test. The conditions noted are these: 20 ppm, with reference to gall formation. Here is the method:
To prepare a suitable active compound preparation, 1 part by weight of active compound is mixed with the stated amounts of solvent and emulsifier and the concentrate is diluted with water to the desired concentration.
Containers are filled with sand, active compound solution, Meloidogyne incognita egg/larval suspension and lettuce seeds. The lettuce seeds germinate and the plantlets develop. The galls develop on the roots.
After the desired time, the nematicidal efficacy is determined I n % with reference to gall formation. 100% means that no galls were found; 0% means that the number of galls on the treated plants corresponds to that of the untreated control.

Experiment [6] concerns larvae of the mustard beetle (Phaedon cochleariae). Nature of the experiment: Phaedon larvae test. To be noted: 1000 ppm. The procedure:
[table] To produce a suitable preparation of active compound, 1 part by weight of active compound is mixed with the stated amounts of solvent and emulsifier, and the concentrate is diluted with emulsifier-containing water to the desired concentration. Cabbage leaves (Brassica oleracea) are treated by being dipped into the preparation of active compound of the desired concentration and are infested with the larvae of the mustard beetle (Phaedon cochleariae) while the leaves are still moist.

Experiment [7] deals with Avena fatua. Kind of experiment: Pre-emergence test. The conditions noted are these: greenhouse, 250 g a.i./ha, scored after three weeks. Here is the method: (§10) [table] To prepare a suitable active compound preparation, 1 part by weight of active compound is mixed with the stated amount of solvent, the stated amount of emulsifier is added, and the concentrate is diluted with water to the desired concentration. Seeds of the test plant are sown in normal soil. After approximately 24 hours, the soil is sprayed with the active compound preparation in such a way that the amounts of active compound desired in each case are applied per unit area. The concentration of the spray mixture is chosen in such a way that the amounts of active compound desired in each case are applied in 1 000 1 of water/ha. After three weeks, the degree of damage of the plants is scored in % damage in comparison with the development of the untreated control.

In experiment [8] the test system is Echinochloa. Kind of experiment: Pre-emergence test. The conditions noted are these: greenhouse, 250 g a.i./ha, scored after three weeks. Here is the method:
as §10

Experiment [9] deals with Setaria. Kind of experiment: Pre-emergence test. To be noted: greenhouse, 250 g a.i./ha, scored after three weeks. Here is the method:
as §10

The test system of experiment [10] is Alopecurus. Kind of experiment: Pre-emergence test. The conditions noted are these: greenhouse, 250 g a.i./ha, scored after three weeks. The procedure:
as §10

For experiment [11], the system named is Sinapis. Nature of the experiment: Pre-emergence test. To be noted: greenhouse, 250 g a.i./ha, scored after three weeks. The procedure:
as §10

Experiment [12] deals with Sinapis. Kind of experiment: Post-emergence test. The conditions noted are these: greenhouse, 250 g a.i./ha, scored after three weeks. The procedure: as §6, §7, §8, §9
Experiment [13] concerns cereals. Kind of experiment: Greenhouse experiment with cereals with 100 g a.i./ha mefenpyr, post-emergence, evaluation 21 days after application. The conditions noted are these: 50 g a.i./ha, no safener. Here is the method:
as §1, with “plants). […]” for “plants).”
(§11) The activity of the safener substance can be assessed in comparison with untreated control plants by comparing the effect of test substances on crop plants which have been treated without and with safener. […]

For experiment [14], the system named is cereals. Kind of experiment: Container experiments with cereals outside the greenhouse, herbicide + mefenpyr 50 g a.i./ha. The conditions noted are these: 100 g a.i./ha, no safener. Here is the method: as §1, with “plants). […]” for “plants).”
as §11

Where [15] appears, read: 25 g a.i./ha herbicide, no safener.
Where [16] appears, read: 50 g a.i./ha herbicide, no safener.
Setting [17] is: 100 g a.i./ha herbicide, no safener.
The mark [18] stands for this setting: application rate 25 g a.i./ha, without safener.
Where [19] appears, read: application rate 50 g a.i./ha, without safener.
Where [20] appears, read: application rate 100 g a.i./ha, without safener.

For the compound `CCc1cc(Cl)cc(OC)c1C1=C(O)C2(CCC(OC)CC2)OC1=O` (mixture of isomers) [Example I-2-a-2], the “Spring barley observed (%)” value amounted to 20% in the experiment on cereals [1] (50 g a.i./ha), 60% with Spring barley (setting [15]), 60% in the experiment on Spring barley (setting [16]) and 97% in the experiment with Spring barley (setting [17]). Moreover, in the experiment on cereals [1] (50 g a.i./ha), the “Spring wheat observed (%)” value came out at 95%.
`CCc1cc(Cl)cc(OC)c1C1=C(OC(=O)C(C)(C)CC)C2(CCC(OC)CC2)OC1=O` (mixture of isomers) [Example I-2-b-4]: in the experiment on Spring wheat (setting [15]), the “Spring wheat observed (%)” value was determined as 100%. Besides, the “Spring barley observed (%)” value in the experiment on Spring barley (setting [17]) is listed as 80%.
In the case of `CCc1cc(Cl)cc(OC)c1C1=C(OC(=O)C(C)C)C2(CCC(OC)CC2)OC1=O` (mixture of isomers) [Example I-2-b-5], in the experiment with Spring wheat (setting [15]), the “Spring wheat observed (%)” value is 99%. Moreover, the entries for the “Spring barley observed (%)” value in the experiment on Spring barley (setting [15]), in the experiment on Spring barley (setting [16]) and with Spring barley (setting [17]) were 50%, 97% and 100%, respectively.
With `CCc1cc(Cl)cc(OC)c1C1=C(OC(=O)C(C)(C)C)C2(CCC(OC)CC2)OC1=O` (mixture of isomers) [Example I-2-b-6], the “Spring barley observed (%)” value in the experiment with cereals [1] (50 g a.i./ha) is on record as 40%; with Spring barley (setting [15]) it was 50%; in the experiment on Spring barley (setting [16]), 97%; in the experiment on Spring barley (setting [17]), 98%. The “Spring wheat observed (%)” value in the experiment with cereals [1] (50 g a.i./ha) amounted to 100%.
As for `CCOC(=O)OC1=C(c2c(CC)cc(Cl)cc2OC)C(=O)N(CC)C1C` (racemic) [Example I-1-c-7], the “Spring barley observed (%)” value stood at 15% in the experiment with Spring barley (application rate 13 g a.i./ha, without safener); 30% in the experiment with Spring barley (setting [18]); 85% in the experiment on Spring barley (setting [19]).
`CCc1cc(Cl)cc(OC)c1C1=C(O)C2(CCC(C)CC2)NC1=O` (single isomer, unassigned) [Example I-1-a-4]: the “degree of damage, Avena fatua” value in the experiment on Avena fatua [2] and with Avena fatua [7] was 100% throughout. The “degree of damage, Echinochloa” value in the experiment on Echinochloa [3] and in the experiment with Echinochloa [8] was 100% in each case. Further, the “degree of damage, sugar beet” value in the experiment on sugar beet is 0%. For the same compound, the “degree of damage, Setaria” value in the experiment with Setaria [4] and with Setaria [9] was 100% throughout. Besides, the “degree of damage, Alopecurus” value is given as 100% in the experiment on Alopecurus [5] and 90% with Alopecurus [10]. Moreover, the “Destruction in % after 14 d” value in the experiment with Meloidogyne incognita is reported as 98%. In experiment [6], the “Destruction in % after 7 d” value turned out to be 100%. The “degree of damage, Sinapis” value with Sinapis [11] came to 90%.
With `CCc1cc(Cl)cc(OC)c1C1=C(OC(=O)C(C)(C)C)C2(CCC(C)CC2)NC1=O` (single isomer, unassigned) [Example I-1-b-4], the “Spring barley observed (%)” value in the experiment on cereals [1] (50 g a.i./ha) is recorded as 60%.
`CCc1cc(Cl)cc(OC)c1C1=C(O)C(C)(C)NC1=O` [Example I-1-a-5]: the “degree of damage, Avena fatua” value in the experiment on Avena fatua [2] and in the experiment on Avena fatua [7] was 100% each time. The “degree of damage, Echinochloa” value in the experiment on Echinochloa [3] and in the experiment on Echinochloa [8] was 100% throughout. Besides, the “degree of damage, Setaria” value in the experiment with Setaria [4] and in the experiment with Setaria [9] was 100% each time. Besides, the “degree of damage, Alopecurus” value turned out to be 100% with Alopecurus [5] and 90% in the experiment on Alopecurus [10]. Further, the “degree of damage, Sinapis” value in the experiment on Sinapis [12] came out at 80%.
With `CCc1cc(Cl)cc(OC)c1C1=C(O)C2(CCCCC2)NC1=O` [Example I-1-a-6], the “Winter barley (%)” value in the experiment on cereals [13] (winter barley) came out at 20%. The “Winter wheat (%)” value with cereals [13] (winter wheat) stood at 10%. In addition, in the experiment on Avena fatua [2], the “degree of damage, Avena fatua” value came to 100%. The “degree of damage, Echinochloa” value in the experiment on Echinochloa [3] turned out to be 100%. Moreover, the “degree of damage, Alopecurus” value with Alopecurus [5] is given as 90%. Moreover, in the experiment on Sinapis [12], the “degree of damage, Sinapis” value came out at 80%. Also, the “Destruction in % after 7 d” value in experiment [6] is on record as 90%.
As to `CCc1cc(Cl)cc(OC)c1C1=C(O)C2(CCCCC2)OC1=O` [Example I-2-a-1], the “Spring wheat observed (%)” value is 20% in the experiment on Spring wheat (setting [18]), 20% in the experiment with Spring wheat (setting [19]) and 30% with Spring wheat (setting [20]). The “Spring barley observed (%)” value is on record as 10% in the experiment with Spring barley (setting [18]), 15% in the experiment on Spring barley (setting [19]) and 20% with Spring barley (setting [20]).
In the case of `CCc1cc(Cl)cc(OC)c1C1=C(OC(=O)C(C)(C)C)C2(CCCCC2)OC1=O` [Example I-2-b-1], the “Spring barley observed (%)” value came to 20% in the experiment with cereals [1] (100 g a.i./ha), 10% in the experiment with Spring barley (setting [16]) and 20% in the experiment with Spring barley (setting [17]). The “Spring wheat observed (%)” value with cereals [1] (100 g a.i./ha) is 30%; with Spring wheat (setting [15]) it was 20%; in the experiment with Spring wheat (setting [16]) it was 40%; in the experiment with Spring wheat (setting [17]), 60%.
`CCOC(=O)OC1=C(c2c(CC)cc(Cl)cc2OC)C(=O)OC12CCCCC2` [Example I-2-c-1]: the “Spring barley observed (%)” value in the experiment on cereals [1] (100 g a.i./ha) is 15%; with cereals [14] (spring barley) it was 50%. Further, the “Spring wheat observed (%)” value is 40% with cereals [1] (100 g a.i./ha), 65% with cereals [14] (spring wheat), 20% in the experiment on Spring wheat (setting [16]) and 30% in the experiment with Spring wheat (setting [17]).
